Experimental data from US12403144B2, “HECT E3 ligase inhibitors and uses thereof” (IFOM FONDAZIONE ISTITUTO FIRC DI ONCOLOGIA MOLECOLARE, priority 2019, dated 2025).
Structures can show the parent of a compound that is named as a salt.

Target: T1, untagged HECT of NEDD4 wild-type (WT) (E3 ligase) (Homo sapiens, UniProt P46934)
T1 construct: untagged HECT of NEDD4 wild-type (WT) (E3 ligase); made in house
T1 sequence (P46934 519-900 isoform P46934-4 limits assumed): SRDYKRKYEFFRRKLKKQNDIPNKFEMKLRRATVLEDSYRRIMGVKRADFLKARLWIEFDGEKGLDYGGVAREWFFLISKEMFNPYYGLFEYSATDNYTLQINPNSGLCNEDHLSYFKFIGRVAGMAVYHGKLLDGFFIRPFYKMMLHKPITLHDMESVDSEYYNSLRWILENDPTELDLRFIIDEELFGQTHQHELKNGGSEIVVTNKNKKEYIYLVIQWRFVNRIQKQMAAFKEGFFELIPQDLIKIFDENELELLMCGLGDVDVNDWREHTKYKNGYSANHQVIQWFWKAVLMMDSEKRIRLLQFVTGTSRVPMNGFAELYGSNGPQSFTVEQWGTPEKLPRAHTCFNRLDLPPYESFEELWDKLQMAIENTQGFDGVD
Experiment: In vitro ubiquitination assay TR-FRET based (self-ubiquitination of NEDD4)
Assay type: biochemical
Conditions: at 11 μM; pre-incubated for 1 hour; AUC of 120 minutes kinetic; read-out: percentages of inhibition (NEDD4)
Excerpt: FIG. 1: TR-FRET kinetic assay performed with compound 12. […] Reactions were initiated with the addition of ATP. As labeled ubiquitin molecules become incorporated into chains they come into close proximity, resulting in energy transfer and increased signal to background detection. The activity of the enzyme is continuously and real time detected and it is expressed as % of signal/background during the time.
In order to quantitatively measure the self-ubiquitination process of the E3 HECT ligase NEDD4 the inventors employed a TR-FRET based assay. TR-FRET technology exploits the long-lasting emission of lanthanide fluorescence to interpose a short time-delay between FRET donor excitation and emission. This phenomenon enables to isolate real fluorescent signals from short-lived background emissions, thus reducing possible interference from compounds.
In the present study, elongation of the ubiqutin chain by NEDD4 is measured by adding bacterially expressed E1, His-tagged UBE2D3 (E2) and untagged HECT of NEDD4 wild-type (WT) (E3 ligase) (named in FIG. 1 as WT) enzymes to a mixture of Eu-cryptate ubiquitin, Cy5-ubiquitin and wild-type ubiquitin, combined in a ratio optimized for TR-FRET based conjugation (100×TRF-Ubiquitin Mix, SBB-TR0051). […] Bacterially expressed E1, His-tagged UBE2D3 (E2), untagged HECT NEDD4 (E3 ligase) WT and NEDD4 C/A enzymes were produced and purified as reported in E. Maspero et al. Methods Mol Biol. 1449:153-60 (2016).
Enzymatic incorporation of the labeled TRF-Ubiquitin mix into chains leads to an increase in fluorescence emission at 665 nm (emission of the acceptor Cy5-Ubiquitin, Emacceptor) and decrease at emission wavelength 620 nm (emission of the donor Eu-cryptate Ubiquitin, Emdonor).
The assay was performed in a 384-well plate format (Optiplate, Perkin Elmer, #6007290) on an automated liquid-handler (Hamilton STAR, Hamilton Robotics, Switzerland).
All compounds were dissolved in 100% DMSO and serially diluted in 96-well plates (from 100 μM to 0.005 μM).
Briefly, all reagents were thawed and kept on ice. A master mix containing E1, E2, E3 and TRF-Ubiquitin Mix (SBB-TR0051) diluted in the assay buffer (Tris-HCl pH 7.6 25 mM, NaCl 100 mM, MgCl2 5 mM and Tween 0.01%) is prepared and 50 μl/well is dispensed in a 384 well plate. 3 μl of compounds dissolved in DMSO in the above-indicated concentration range were added and pre-incubated for 1 hour. Final E1, E2 and E3 concentrations in the assay buffer (Tris-HCl pH 7.6 25 mM, NaCl 100 mM, MgCl2 5 mM and Tween 0.01%) were 30, 350 and 50 nanomolars, respectively. The reaction was initiated with the addition of ATP (22 μl of 2 mM ATP, JenaBioscience, NU-1010) and was allowed to proceed for 120 minutes, measuring fluorescence emission at 665 nm and 620 nm in real-time on an EnSpire microplate reader (Perkin Elmer).
Kinetic raw data were analyzed by Area Under the Curve (AUC) method using Prism GraphPad software.
% signal/background corresponds to the following equation: (Experimental signal−Background signal)/Background signal×100%
Experimental signal corresponds to the signal obtained by the enzymatic reaction in presence of the vehicle (DMSO) and/or the different compound concentrations. Background signal corresponds to the signal obtained by the enzymatic reaction in absence of ATP.
The relative potency of the compounds was evaluated by dose-response curves following the enzymatic reaction of HECT NEDD4 WT in real time for 120 minutes.
Percentage of inhibition is then determined by the equation: % inhibition=100×[1−(X)/(MAX)],
where MAX correspond to AUC of the vehicle (DMSO) treated enzyme, and X corresponds to the AUC of the compound treated enzyme.

| inhibition at 11 µM [%] | SMILES |
| --- | --- |
| > 50 | N#C/C=C/CNCCCCN1c2ccccc2CCc2ccc(Cl)cc21 [Compound 71, (E)-4-[4-(3-chloro-10,11-dihydro-5H-dibenzo[b,f]azepin-5-yl)butylamino]but-2-enenitrile maleate] |
| > 50 | CCOC(=O)/C=C/CNCCCCN1c2cc(Cl)ccc2C(=O)N(CCOCCOCCOC)c2ccccc21 [Compound 87, Ethyl (E)-4-{[4-(3-chloro-10-[2-[2-(2-methoxyethoxy)ethoxy]ethyl]-11-oxo-10,11-dihydro-5H-dibenzo[b,e][1,4]diazepin-5-yl)butyl]amino}but-2-enoate maleate] |
| > 50 | C#CCOC(=O)/C=C/CNCCCCN1c2ccccc2CCc2ccc(Cl)cc21 [Compound 91, Prop-2-yn-1-yl (E)-4-[4-(3-chloro-10,11-dihydro-5H-dibenzo[b,f]azepin-5-yl)butylamino]but-2-enoate maleate] |
| > 50 | CCOC(=O)/C=C/CNCCCCN1c2ccccc2CCc2cc(O)c(Cl)cc21 [Compound 40, Ethyl (E)-4-[4-(3-Chloro-2-hydroxy-10,11-dihydro-dibenzo[b,f]azepin-5-yl)-butylamino]-but-2-enoate maleate] |
| > 50 | COCCOC(=O)/C=C/CNCCCCN1c2ccccc2CCc2ccc(Cl)cc21 [Compound 102, 2-methoxy-ethyl (E)-4-[4-(3-chloro-10,11-dihydro-dibenzo[b,f]azepin-5-yl)-butylamino]-but-2-enoate maleate] |
| < 30 | CCOC(=O)/C=C/CNCCCCN1c2ccc(OCc3ccccc3)cc2CCc2ccc(Cl)cc21 [Compound 101, Ethyl (E)-4-[4-(2-benzyloxy-7-chloro-10,11-dihydro-dibenzo[b,f]azepin-5-yl)-butylamino]-but-2-enoate maleate] |
| > 50 | CCOC(=O)/C=C/CNCCCCN1c2ccc(OCCOC)cc2CCc2ccc(Cl)cc21 [Compound 97, Ethyl (E)-4-{4-[7-Chloro-2-(2-methoxy-ethoxy)-10,11-dihydro-5H-dibenzo[b,f]azepin-5-yl]-butylamino}-but-2-enoate maleate] |
| > 50 | CCOC(=O)/C=C/CN(CCCCN1c2ccccc2CCc2ccc(Cl)cc21)C(C)C [Compound 65, Ethyl (E)-4-{[4-(3-chloro-10,11-dihydro-dibenzo[b,f]azepin-5-yl)butyl]-isopropyl-amino}but-2-enoate maleate] |
| > 50 | CCOC(=O)/C=C/CN(CC)CCCCN1c2ccccc2CCc2ccc(Cl)cc21 [Compound 64, Ethyl (E)-4-{[4-(3-chloro-10,11-dihydro-dibenzo[b,f]azepin-5-yl)butyl]-ethyl-amino}but-2-enoate maleate] |
| > 50 | CCOC(=O)/C=C/CNCCCCN1c2ccc(COC)cc2CCc2ccc(Cl)cc21 [Compound 75, Ethyl (E)-4-[4-(7-chloro-2-methoxymethyl-10,11-dihydro-dibenzo[b,f]azepin-5-yl)-butylamino]-but-2-enoate maleate] |
| > 50 | CCOC(=O)/C=C/CNCCCN1c2cc(Cl)ccc2CCc2cncnc21 [Compound 32, Ethyl (E)-4-{[3-(9-chloro-5,6-dihydro-11H-pyrimido[4,5-b][1]-benzazepin-11-yl)propyl]amino}but-2-enoate fumarate] |
| < 30 | CCOC(=O)/C=C/CNCCC(=O)N1c2ccccc2CCc2ccc(Cl)cc21 [Compound 33, Ethyl (E)-4-{[3-(3-chloro-10,11-dihydro-5H-dibenzo[b,f]azepin-5-yl)-3-oxo-propyl]amino}but-2-enoate maleate] |
| > 50 | CCOC(=O)/C=C/CN(C)CCCCN1c2ccccc2CCc2ccc(Cl)cc21 [Compound 63, Ethyl (E)-4-{[4-(3-chloro-10,11-dihydro-5H-dibenzo[b,f]azepin-5-yl)butyl]-methyl-amino}but-2-enoate maleate] |

More lines, now with the values behind:

| SMILES | inhibition at 11 µM [%] |
| --- | --- |
| CON(C)C(=O)/C=C/CN(C)CCCCN1c2cc(Cl)ccc2C(=O)N(Cc2ccccc2)c2ccccc21 [Compound 59, (E)-4-{[4-(10-Benzyl-3-chloro-11-oxo-10,11-dihydro-5H-dibenzo[b,e][1,4]diazepin-5-yl)butyl](methyl)amino}-N-methoxy-N-methyl-but-2-enamide maleate] | > 50 |
| CN(C/C=C/C(=O)CCc1ccccc1)CCCCN1c2ccccc2CCc2ccc(Cl)cc21 [Compound 53, (E)-6-[4-(3-chloro-10,11-dihydro-5H-dibenzo[b,f]azepin-5-yl)butyl-methyl-amino]-1-phenyl-hex-4-en-3-one maleate] | > 50 |
| CCOC(=O)/C=C/CNCCCN1c2cc(Cl)ccc2NC(=O)c2ccccc21 [Compound 26, Ethyl (E)-4-{[3-(7-chloro-11-oxo-10,11-dihydro-5H-dibenzo[b,e][1,4]diazepin-5-yl)propyl]amino}but-2-enoate maleate] | > 50 |
| CCOC(=O)/C=C/CNCCCN1c2ccccc2C(=O)N(CCO)c2ccc(Cl)cc21 [Compound 55, Ethyl (E)-4-({3-[7-chloro-10-(2-hydroxyethyl)-11-oxo-10,11-dihydro-5H-dibenzo[b,e][1,4]diazepin-5-yl]propyl}amino)but-2-enoate maleate] | < 30 |
| CN(C/C=C/C(=O)c1ccccc1)CCCN1c2ccccc2CCc2ccc(Cl)cc21 [Compound 8, (E)-4-[3-(3-chloro-10,11-dihydro-5H-dibenzo[b,f]azepin-5-yl)propyl-methyl-amino]-1-phenyl-but-2-en-1-one] | > 50 |
| CON(C)C(=O)/C=C/CN(C)CCCCN1c2cc(Cl)ccc2COc2ccccc21 [Compound 69, (E)-4-[4-(3-Chlorodibenzo[b,e][1,4]oxazepin-5(11H)-yl)butyl-methyl-amino]-N-methoxy-N-methyl-but-2-enamide] | > 50 |
| CC(=O)/C=C/CN(C)CCCCN1c2ccccc2CCc2ccc(Cl)cc21 [Compound 10, (E)-5-[4-(3-chloro-10,11-dihydro-5H-dibenzo[b,f]azepin-5-yl)butyl-methyl-amino]pent-3-en-2-one maleate] | > 50 |
| CC(=O)/C=C/CN(C)CCCCN1c2cc(Cl)ccc2COc2ccccc21 [Compound 70, (E)-5-[4-(3-Chlorodibenzo[b,e][1,4]oxazepin-5(11H)-yl)butyl-methyl-amino]pent-3-en-2-one maleate] | > 50 |
| CCOC(=O)/C=C/CNCCCN1c2cc(Cl)ccc2C(=O)N(C)c2ccccc21 [Compound 27, Ethyl (E)-4-{[3-(3-chloro-10-methyl-11-oxo-10,11-dihydro-5H-dibenzo[b,e][1,4]diazepin-5-yl)propyl]amino}but-2-enoate maleate] | > 50 |
| CCOC(=O)/C=C/CNCCCCN1c2ccccc2C(=O)N(CCc2ccccc2)c2ccc(Cl)cc21 [Compound 44, Ethyl (E)-4-{[4-(7-chloro-10-(2-phenylethyl)-11-oxo-10,11-dihydro-5H-dibenzo[b,e][1,4]diazepin-5-yl)butyl]amino}but-2-enoate maleate] | > 50 |
